From publication PMC12670396, “Crizotinib- or Ceritinib-Conjugated Platinum(IV) Prodrugs As Potent Multiaction Agents Inducing Antiproliferative Effects in 2D and 3D Cancer Cell Models” (Journal of Medicinal Chemistry, 2025)

Assays:
A549 = test: MTT cytotoxic/antiproliferative activity, 72 h; type: cell-based, human; conditions: for IC50: A549, MTT, 72 h
NCI-H2228 = test: MTT cytotoxic/antiproliferative activity, 72 h; type: cell-based, human; conditions: for IC50: NCI-H2228, MTT, 72 h
U87-MG = test: MTT cytotoxic/antiproliferative activity, 72 h; type: cell-based, human; conditions: for IC50: MTT, 72 h
Protocol: (§1) A panel of six cancer cell lines was used to evaluate the cytotoxic potential of the investigated compounds.
(§2) Cytotoxicity in hepatocyte-like cells (HLC). STEMdiff Hepatocyte Kit was used to generate HLC from human pluripotent stem cells. Cytotoxicity of several of the tested compounds in HLC was evaluated using the sulphorhodamine B assay.

HCT116 = test: MTT cytotoxic/antiproliferative activity, 72 h; type: cell-based, human; conditions: for IC50: HCT116, MTT, 72 h
RD = test: MTT cytotoxic/antiproliferative activity, 72 h; type: cell-based, human; conditions: for IC50: MTT, 72 h
MDA-MB-231 = test: MTT cytotoxic/antiproliferative activity, 72 h; type: cell-based, human; conditions: for IC50: MDA-MB-231, MTT, 72 h
IMR-90 = test: MTT cytotoxicity in noncancerous cells, 72 h; type: cell-based, human; conditions: IMR-90, MTT
Protocol: (§3) Growth inhibition activity in cancer cell lines was compared with the activity to inhibit the proliferation of normal (noncancerous) cells, namely MRC-5, IMR-90, hTERT-HPNE, and MCF10A cells. Selectivity indexes (SI) were calculated as (IC50 in noncancerous cells)/(average IC50 in cancer cells). […] We further assessed the toxicity of several of the compounds in hepatocyte-like cells (HLC) generated from human pluripotent cells.
as §2

MCF10A = test: MTT cytotoxicity in noncancerous cells, 72 h; type: cell-based, human
Protocol: as §3, §2

MRC-5 = test: MTT cytotoxicity in noncancerous cells, 72 h; type: cell-based, human; conditions: MRC-5, MTT
Protocol: as §3, §2

hTERT-HPNE = test: MTT cytotoxicity in noncancerous cells, 72 h; type: cell-based, human
Protocol: as §3, §2

CHOK1 = test: MTT cytotoxicity in NER-proficient cells, 72 h; type: cell-based, Chinese hamster
Excerpt: (§4) The cytotoxicity assay was also employed to determine whether DNA damage might be involved in the mechanism of action of the tested compounds. The Chinese hamster ovary MMC2 cell line harbors the ERCC3/XPB mutation, which renders it deficient in nucleotide excision repair (NER), whereas the parent line CHOK1 is proficient in this repair process. Thus, the MMC2 line is often more sensitive to agents causing DNA damage, especially NER-reparable DNA damage, than CHOK1. […] Phosphorylation of H2AX is a commonly used marker of DNA damage.
as §2

MMC2 = test: MTT cytotoxicity in NER-deficient cells, 72 h; type: cell-based, Chinese hamster; conditions: for Index F: IC50(CHOK1)/IC50(MMC2); for IC50: MMC2 (NER deficient), MTT, 72 h
Excerpt: as §4, with “damage. […]” for “damage.”

[1] = tested on: panel of six cancer cell lines; test: MTT, panel of six cancer cell lines (average, ranges); type: cell-based, human; conditions: average over six cancer cell lines; read-out: av cancer (average IC50 in cancer cells)
Protocol: as §1, §2

A549 spheroids = test: Cytotoxicity in 3D spheroids, CellTiter-Glo 3D; type: cell-based, human; conditions: A549 3D spheroids, 96 h
Protocol: (§5) In the 3D structure, the gradients of gases, nutrients, and therapeutics play a role in the final cytotoxicity of a compound.
(§6) A549 and NCI-H2228 cells were seeded in ultralow attachment, U-shape plates (Corning) at a density of 800 cells/well in the tumorsphere medium consisting of DMEM/F12 medium (Sigma), fibroblast growth factor (20 ng/mL; Sigma), epidermal growth factor 2 (10 ng mL^–1; Sigma), B27 supplement (1×; Gibco), bovine serum albumin, bovine serum albumin (BSA) (1.5 mg mL^–1; Sigma). […] CellTiter-Glo 3D viability assay was used for the experiment evaluation following the manufacturer’s instructions. The bioluminescence signal, proportional to the number of living cells, was measured using the luminescence reader SPARK, and IC50 values were calculated.

NCI-H2228 spheroids = test: Cytotoxicity in 3D spheroids, CellTiter-Glo 3D; type: cell-based, human; conditions: NCI-H2228 3D spheroids, 96 h
Protocol: as §5, §6

NCI-H2228 cells = test: Phosphorylation of H2AX (γH2AX foci, confocal microscopy); type: cell-based, human; conditions: NCI-H2228, 3xIC50, 24 h
Excerpt: as §4
The nuclei were counter-stained with DAPI. The samples were mounted with ProLong Diamond antifade mountant, and the images were recorded on a Leica SP8 confocal microscope.

CT26 cell line = test: MTT cytotoxic/antiproliferative activity, 72 h; type: cell-based, murine
A549 cells = test: Scratch test (cell migration); type: cell-based, human; conditions: A549, IC50 concentrations, 48 h
Protocol: First, we employed the scratch test. The ability to slow the cell closing the open area was observable for all tested compounds to a similar extent (Figure S38). Whereas the open area was almost completely closed after 48 h in nontreated cells, it remained almost fully clear of cells in the treated samples.
A549 cells were seeded in 24-well plates with inserts (Ibidi) at a density of 2 × 10^4 cells/chamber and incubated overnight. The inserts were then withdrawn, and fresh medium containing the investigated compounds was added. The image of the cell-free region was recorded at the time of compound addition and then after 48 h. The cell-free area was evaluated with Fiji software.

CT26 cells = test: Externalization of calreticulin (flow cytometry); type: cell-based, murine; conditions: IC50 concentrations, 16 h
Protocol: Cells with compromised cell membranes (PI-positive) were excluded from the analysis.
CT26 cells were seeded in 6-well plates at a density of 2.5 × 10^5 cells/well and grown overnight. […] PI was added before the flow cytometry analysis with a BD FACS Verse flow cytometer. Then 3 × 10^4 cells were analyzed following the exclusion of cell aggregates. Data was analyzed with FSC Express 7 software (DeNovo software, Glendale, CA).

N.N.[Cl][Pt][Cl] [cisPt, cisplatin, reference compound] showed an IC50 (A549) of 4300 ± 200 nM, an IC50 (NCI-H2228) of 2400 ± 700 nM and an IC50 (U87-MG) of 3000 ± 200 nM. The IC50 (HCT116) was 8800 ± 500 nM, the IC50 (RD) was 7300 ± 200 nM and the IC50 (MDA-MB-231) was 27000 ± 4000 nM. For the same compound, the IC50 (IMR-90) was 9600 ± 800 nM, the IC50 (MCF10A) was 8000 ± 900 nM and the IC50 (MRC-5) was 10000 ± 2000 nM. For the same compound, the IC50 (hTERT-HPNE) was 12000 ± 2000 nM, the IC50 (CHOK1) was 24000 ± 2000 nM and the “Index F” value (MMC2) was 9.23(***). The “Index F” value (MMC2; listed as cisplatin) was “approximately 9”, the IC50 (MMC2) was 2600 ± 600 nM and the IC50 [1] was 8800 nM. For the same compound, the IC50 (A549 spheroids) was 19000 ± 3000 nM, the IC50 (NCI-H2228 spheroids) was 2100 ± 900 nM and the “γH2AX foci (DNA damage marker)” value (NCI-H2228 cells) was “detected γH2AX foci”. The IC50 (CT26 cell line) was 6000 ± 1000 nM, the “antimigratory effect (closing of open area)” value (shortened to “antimigratory effect”) (A549 cells) was “reduced the area filling only partially” and the externalization of calreticulin (CT26 cells) was “weakest”.

Work on CC(Oc1cc(-c2cnn(C3CCN(C(=O)[O][Pt]([Cl])([Cl])[O]C(=O)CCCc4ccccc4)CC3)c2)cnc1N)c1c(Cl)ccc(F)c1Cl.N.N (stereo not drawn) [compound 3, ctc-[Pt(NH3)2(crizotinib)(PhB)Cl2]] yielded an IC50 (A549) of 480 ± 60 nM, an IC50 (NCI-H2228) of 450 ± 90 nM and an IC50 (U87-MG) of 440 ± 50 nM. It also gave an IC50 (HCT116) of 570 ± 90 nM, an IC50 (RD) of 540 ± 70 nM and an IC50 (MDA-MB-231) of 500 ± 70 nM. For the same compound, the IC50 (IMR-90) was 2300 ± 600 nM, the IC50 (MCF10A) was 2600 ± 400 nM and the IC50 (MRC-5) was 1500 ± 600 nM. It also gave an IC50 (hTERT-HPNE) of 2200 ± 400 nM, an IC50 (CHOK1) of 630 ± 50 nM and an IC50 (MMC2) of 230 ± 80 nM. The IC50 [1] was 500 nM, the IC50 (A549 spheroids) was 980 ± 50 nM and the IC50 (NCI-H2228 spheroids) was 410 ± 70 nM. For the same compound, the “γH2AX foci (DNA damage marker)” value (NCI-H2228 cells) was “detected γH2AX foci”, the IC50 (CT26 cell line) was 800 ± 200 nM and the “antimigratory effect” value (A549 cells) was “antimigratory potential comparable to that of crizotinib and ceritinib”. The externalization of calreticulin (CT26 cells) was “externalization of calreticulin was apparent”.

For Cc1cc(Nc2ncc(Cl)c(Nc3ccccc3S(=O)(=O)C(C)C)n2)c(OC(C)C)cc1C1CCN(C(=O)[O][Pt]([Cl])([Cl])[O]C(=O)CCCc2ccccc2)CC1.N.N [compound 7, ctc-[Pt(NH3)2(ceritinib)(PhB)Cl2]], the IC50 (A549) was 230 ± 80 nM, the “IC50(MIX)/IC50(complex)” value (A549; A549, MIX3/3 or MIX7/7) was 3.9 and the IC50 (NCI-H2228) was 70 ± 10 nM. For the same compound, the “IC50(MIX)/IC50(complex)” value (NCI-H2228; NCI-H2228, MIX3/3 or MIX7/7) was 6.3, the “IC50(MIX)/IC50(complex)” value (U87-MG; MIX3/3 or MIX7/7) was 2.4 and the IC50 (U87-MG) was 260 ± 90 nM. For the same compound, the IC50 (HCT116) was 190 ± 60 nM, the “IC50(MIX)/IC50(complex)” value (HCT116; HCT116, MIX3/3 or MIX7/7) was 3.1 and the “IC50(MIX)/IC50(complex)” value (RD; MIX3/3 or MIX7/7) was 1.7. For the same compound, the IC50 (RD) was 350 ± 30 nM, the IC50 (MDA-MB-231) was 220 ± 80 nM and the “IC50(MIX)/IC50(complex)” value (MDA-MB-231; MDA-MB-231, MIX3/3 or MIX7/7) was 4.1. It also gave an IC50 (IMR-90) of 1100 ± 300 nM, an IC50 (MCF10A) of 900 ± 200 nM and an IC50 (MRC-5) of 1200 ± 400 nM. The IC50 (hTERT-HPNE) was 2000 ± 300 nM, the IC50 (CHOK1) was 460 ± 80 nM and the “Index F” value (MMC2) was 4.60(**). The IC50 (MMC2) was 100 ± 30 nM, the IC50 [1] was 220 nM and the IC50 (A549 spheroids) was 430 ± 70 nM. For the same compound, the IC50 (NCI-H2228 spheroids) was 110 ± 30 nM, the “γH2AX foci (DNA damage marker)” value (NCI-H2228 cells) was “detected γH2AX foci” and the IC50 (CT26 cell line) was 270 ± 70 nM. For the same compound, the “antimigratory effect” value (A549 cells) was “antimigratory potential comparable to that of crizotinib and ceritinib” and the externalization of calreticulin (CT26 cells) was “externalization of calreticulin was apparent”.
